Data from patent publication US20040235070A1, “Immune reactivity to expressed activated oncogenes for diagnosis and treatment of malignancy” (Washington Research Foundation, priority 1990, published 2004).

What was measured:
[1] = system: bcr3-abl2 peptide-specific CD4^+ T cell clones; test: Proliferative assay of bcr3-abl2 peptide-specific CD4+ T cell clones ([3H] thymidine incorporation); format: cell-based, BALB/c mice; details: for [^3H] Thymidine Incorporation (c.p.m.): peptide 5 μg/ml, Table 2; for [^3H] Thymidine Incorporation (c.p.m.) / [^3H] Thymidine Incorporation (c.p.m.) after Stimulation with bcr-abl 12 peptide/proteins (μg/ml): 96-hour culture; for [^3H] Thymidine Incorporation (c.p.m.) after Stimulation with bcr3-abl2 peptide (5 μg/ml): peptides of varying lengths 5 μg/ml, 96 hour culture, Table 4; for [^3H] Thymidine Incorporation (c.p.m.) after Stimulation with bcr-abl 12 peptide/proteins (μg/ml): Table 5
Method: Mice (female BALB/c and C57BL/6 (B6), 6 to 8 weeks old; Jackson Laboratories, Bar Harbor, Me.) were inoculated twice at 2-week intervals by subcutaneous injection with Complete Freund's Adjuvant (Sigma Chemical Co., St. Louis, Mo.) alone or emulsified with bcr3-abl2 peptide (100 μg). Ten days after the final immunization, single cell suspensions of draining lymph nodes and spleens were prepared in medium consisting of 1:1 mixture of RPMI 1640 (Gibco Laboratories, Inc., Grand Island, N.Y.) and EHAA (Biofluids, Inc., Rockville, Md.) with 2.5×10^−5 M 2-ME, 200 U/ml penicillin, 200 U/ml streptomycin, 10 mM L-glutamine and 10% fetal calf serum. For proliferative assays, lymphocytes were cultured in 96-well plates at 2×10^5 cells per well with 4×10^5 irradiated syngeneic spleen cells (3,000 rad) and designated (total volume of 200 μl per well). Plates were incubated in a humidified atmosphere under 5% CO2 tension at 37° C. for 72 hours, and then pulsed for 18 hours with […] of [^3H]-thumidine per well. Proliferative responses of cloned T cells utilized 2×10^4 cells per well with 5×10^5 irradiated syngeneic spleen cells (3,000 rad) and designated peptide.
Lymphocytes from the draining lymph nodes of mice immunized with bcr3-abl2 peptide were cultured in 24-well culture plates at 4×10^6 cells per well with 2×10^6 irradiated syngeneic spleen cells and bcr3-abl2 peptide at 25 μg/ml (total volume 2 ml). The plates were cultured in a humidified atmosphere under 5% CO2 tension at 37° C. for 5 days then split 1:2. After 10 days, lymphocytes were restimulated at 1×10^6 lymphocytes per well in 24-well culture plates with 5×10^6 irradiated syngeneic spleen cells and peptide (25 μg/ml). Two days after the second in vitro stimulation, T cells were-plated at 0.5 cells per well in 96-well flat-bottom plates with 1×10^6 irradiated syngeneic spleen cells and rIL-2 (50 U/ml). Derived T cell clones were maintained by periodic stimulation with peptide (1 μg/ml) plus irradiated syngeneic spleen cells followed by expansion with rIL-2 (10 U/ml) every 2 weeks. T cell clones were stained with FITC-conjugated anti-Thy 1.2 (1%), or FITC-conjugated anti-Lyt2 (2%), or PE-conjugated anti-L3T4 (3%) mAbs (Becton Dickinson Immunocytochemistry Systems, Mountain View, Calif.) at 4° C. for 45 minutes.

[2] = system: spleen cells from mice immunized with p54-66[L61]; test: Proliferative response of spleen cells from mice immunized with p54-66[L61] ras peptide; format: cell-based, C3H/HeN mice; details: lymphocytes from mice immunized with p54-66[L61]; FIG. 4
Method: This peptide is denoted as p54-66[L61] or [L61]. C3H/HeN mice were immunized twice subcutaneously at two week intervals with Ribi adjuvant alone or adjuvant emulsified with p54-66[L61] ras peptide (100 μg). Two weeks after the final immunization, spleen cells from mice injected with adjuvant alone (open bar) or adjuvant plus p54-66[L61] ras peptide (black bar) were harvested and tested in vitro for proliferative response to the indicated p54-66 ras peptide (100 μg/ml). The peptide containing the substitution of lysine (K) for glutamine at position 61 is denoted as [K61]. The data represent the mean of triplicate determinations of the c.p.m. of incorporated ^3HTdR±S.D.

Row | Substance | [^3H] Thymidine Incorporation (c.p.m.) ([1]; T cell clone 1D2) | [^3H] Thymidine Incorporation (c.p.m.) ([1]; T cell clone 2B12) | [^3H] Thymidine Incorporation (c.p.m.) ([1]; T cell clone 2D4) | [^3H] Thymidine Incorporation (c.p.m.) ([1]; T cell clone 2E3) | [^3H] Thymidine Incorporation (c.p.m.) ([1]; T cell clone 2E10) | [^3H] Thymidine Incorporation (c.p.m.) ([1]; T cell clone 3B7) | [^3H] Thymidine Incorporation (c.p.m.) ([1]; T cell clone 3E11) | [^3H] Thymidine Incorporation (c.p.m.) ([1]; T cell clone 3G2) | [^3H] Thymidine Incorporation (c.p.m.) ([1]; T cell clone 3G3) | [^3H] Thymidine Incorporation (c.p.m.) after Stimulation with bcr3-abl2 peptide (5 μg/ml) ([1]; T cell clone 1D2) | [^3H] Thymidine Incorporation (c.p.m.) after Stimulation with bcr3-abl2 peptide (5 μg/ml) ([1]; T cell clone 2E10) | proliferation in vitro [2] | further results
1 | A F H G D A Q A L Q R P V A (AFHGDAQALQRPVA) [BCRI-abl2, 14 mer of p185 bcr-abl joining region, reference compound] | 315 | 385 | 147 | 461 | 137 | 277 | 398 | 583 | 351 |  |  |  | 
2 | G F K Q S S K A L Q R P V A (GFKQSSKALQRPVA) [bcr3-abl2 14-mer peptide] |  |  |  |  |  |  |  |  |  | 238,297 c.p.m. | 170,085 c.p.m. |  | [^3H] Thymidine Incorporation (c.p.m.) after Stimulation with bcr-abl 12 peptide/proteins (μg/ml) ([1]; T cell clone 2E10, peptide/protein 0.04 μg/ml): 6,303 c.p.m.; [^3H] Thymidine Incorporation (c.p.m.) after Stimulation with bcr-abl 12 peptide/proteins (μg/ml) ([1]; T cell clone 2E10, peptide/protein 0.2 μg/ml): 54,896 c.p.m.; [^3H] Thymidine Incorporation (c.p.m.) after Stimulation with bcr-abl 12 peptide/proteins (μg/ml) ([1]; T cell clone 2E10, peptide/protein 1 μg/ml): 92,970 c.p.m.
3 | G F K Q S S K A L Q R P V A S D (GFKQSSKALQRPVASD) [bcr3-abl2 16-mer] |  |  |  |  |  |  |  |  |  | 108,309 c.p.m. | 139,083 c.p.m. |  | 
4 | Gln-61: p54-66 ras peptide with the normal glutamine at position 61 (DILDTAGQEEYSA; UniProt P01112 54-66, looked up, fragment) |  |  |  |  |  |  |  |  |  |  |  | not | 
5 | H S A T G F K Q S S K A L Q R P V A (HSATGFKQSSKALQRPVA) [bcr3-abl2 18-mer] |  |  |  |  |  |  |  |  |  | 150,309 c.p.m. | 224,674 c.p.m. |  | 
6 | I V H S A T G F K Q S S (IVHSATGFKQSS) [bcr3, reference compound] | 294 | 461 | 133 | 193 | 667 | 462 | 305 | 461 | 190 |  |  |  | response of bcr3-abl2 peptide-specific T cell clones (in words) ([1]; proliferative assay with irradiated syngeneic APC): failed to respond
7 | IVHSATGFKQSSKALQRPVASD (IVHSATGFKQSSKALQRPVASD) [bcr3-abl2 22-mer] |  |  |  |  |  |  |  |  |  | 21,208 c.p.m. | 29,509 c.p.m. |  | 
8 | L T I N K E E A L Q R P (LTINKEEALQRP) [bcr2-abl2, 12 mer of p210 joining region, bcr exon 2 fused to c-abl exon 2, reference compound] | 274 | 341 | 143 | 402 | 287 | 349 | 299 | 478 | 217 |  |  |  | 
9 | Leu-61 peptide: 13 residues 54-66 of ras p21 with leucine for glutamine at position 61 (DILDTAGLEEYSA; UniProt P01112 54-66, looked up, fragment Q61L) |  |  |  |  |  |  |  |  |  |  |  | proliferate in vitro | 
10 | Lys-61: p54-66 ras peptide with lysine for glutamine at position 61 (DILDTAGKEEYSA; UniProt P01112 54-66, looked up, fragment Q61K) |  |  |  |  |  |  |  |  |  |  |  | not | 
